Data reported in patent US8535950B2, “Use of perfluoropolymer submicrometric latexes in the determination of molecular interactions by laser light scattering (LLS)” (Solvay Solexis S.p.A., priority 2005, dated 2013).
Where a name gives a salt, the structure may show the parent alone.

Tested on: peptide sequence L-Lys-D-Ala-D-Ala
Assay: Binding constant by laser light scattering (LLS) on perfluoropolymer latex particles coated with receptor-ended surfactant
Text: More specifically the use comprises the following steps: • a) addition to a colloidal aqueous suspension or latex of particles having an average diameter between 5 and 200 nm, preferably between 40 and 80 nm, formed of a perfluorinated, semicrystalline or amorphous polymer, of a sequence of known volumes of an aqueous solution of a mixture containing from 50% to 99.5% by weight of an amphiphylic non ionic surfactant and from 0.5 to 50% by weight of a surfactant ended with a receptor, measuring after each addition the intensity of the scattered light by the suspension by Laser Scattering Light (LLS) and reporting it on a diagram in function of the progressively added solution volume, until reaching an asymptotic value (Ir); • b) addition to the suspension obtained in step a) of a sequence of known volumes of a ligand aqueous solution, measuring after each addition the intensity of the scattered light by the suspension by Laser Scattering Light (LLS) its reporting on a diagram in function of the progressively added solution volume (expressed as molar concentration [T0]), until reaching an asymptotic value and fitting the scattered light intensity data (I) in function of the ligand additions ([T0]) with formula (1) to obtain the receptor-ligand binding constant (K), wherein formula (1) is: […]

`CN[C@H](CC(C)C)C(=O)N[C@H]1C(=O)N[C@@H](CC(N)=O)C(=O)N[C@H]2C(=O)N[C@H]3C(=O)N[C@H](C(=O)N[C@H](C(=O)O)c4cc(O)cc(O)c4-c4cc3ccc4O)[C@H](O)c3ccc(c(Cl)c3)Oc3cc2cc(c3O[C@@H]2O[C@H](CO)[C@@H](O)[C@H](O)[C@H]2O[C@H]2C[C@](C)(N)[C@H](O)[C@H](C)O2)Oc2ccc(cc2Cl)[C@H]1O` [Vancomycin, Vancomycin hydrochloride hydrate] was tested, and the receptor-ligand binding constant (Example 1: 0.1% latex, 78 nm particles of TFE copolymer with 40% by moles perfluoromethylvinylether, 0.4 millimole Vancomycin solution in 6 microlitre portions, Langmuir fit) was 1.5e+06 mol⁻¹ and the receptor-ligand binding constant (Example 2: 0.1% latex, 40 nm particles of TFE copolymer with 30% by moles TTD, 0.9 millimolar Vancomycin in 6 microlitre portions) was 1.1e+06 mol⁻¹.
